Experimental data from patent US5719287A, “Intermediates for inhibitors of HIV protease and method of preparation thereof” (Eli Lilly and Company, priority 1995, dated 1998).
Where two headings read alike, the source gives them in different places.

Biological target: T1, HIV-1 protease (Human immunodeficiency virus type 1 group M subtype B, UniProt P04585)
T1 construct: Purified HIV-1 protease was obtained as described below; made in house; host or cells: E. coli K12 L507/pHP10D (NRRL B-18560)
Experiment: biochemical
Settings: for IC50: read-out: Fluorescence Assay IC50 (converted)
Experimental: N^α -Biotin-[…]Ne-FITC)-OH
The purified peptide was labeled as follows with a fluorescent marker at the C-terminal end for use in the assay. N^α -Biotin-Gly-Ser-Gln-Asn-Tyr-Pro-lle-Val-Gly-Lys-OH (1.206 g, 0.936 mmoles) was dissolved in 100 mL of 0.1M sodium borate, pH 9.5 with stirring. Then, 3 g of fluorescein isothiocyanate (7.7 mmol) was dissolved in 15 mL dimethyl sulfoxide and the solution added to the reaction in 10 equal portions over the course of a two hour period. The reaction was allowed to proceed for a further one hour after the final addition had been made. The pH of the solution was adjusted to 3 with 5N HCl. A precipitate formed which was removed from the reaction by centrifugation.
Fluorescence HIV-1 Protease Inhibitor Assay Procedure.
To each well of a round bottom, 96-well plate is added 20 μl of the Enzyme Solution followed by 10 μl of the compound to be evaluated in 20% aqueous DMSO. Purified HIV-1 protease was obtained as described below. The solution is incubated for one hour at room temperature and then 20 μl of a solution of the substrate N^α -Biotin-[…]N^e -FITC)-OH, in MES-ALB buffer (1.5 μl/ml) is added to each well. The solutions are incubated for 16 hours at room temperature and thereafter to each well is added 150 μl of MES-ALB buffer.
To each well of a 96-well Pandex plate is added 25 μl of the Avidin Coated Beads Solution. Next, 25 μl of the diluted incubation solutions, described above, are added to each well of the Pandex plate. The solutions are mixed well and the plates are loaded into a Pandex® machine, washed, evacuated and read. Sample detection was performed by excitation at 485 nm and reading the resulting epifluorescence at 535 nm.
A culture of E. coli K12 L507/pHP10D was grown to mid-log phase at 32° C. in LB media containing 12.5 μg/ml tetracycline. The cultivation temperature was quickly elevated to 40° C. to induce gene expression, and the cells were allowed to grow for 2.5 hours at this temperature before the culture was quickly chilled on ice. The cells were centrifuged and the cell pellet was resuspended in 20 ml 50 mmol MES buffer (pH 6.0) containing 1 mmol EDTA, 1 mmol DTT, 1 mmol PMSF, and 10% glycerol (Buffer A). Cells were lysed by sonication using a Fischer Model 300 Dismembrator and a microtip probe. […] Enzymatic activity was measured by HPLC using the synthetic peptide SQNYPIV as described in Margolin et al., Biochem. Biophys. Res. Commun., 167, 554-560 (1990); the production of the pl peptide (SQNY) was measured.
Active fractions were pooled, made 1.2M in ammonium sulfate, and applied to a hexyl agarose column (2.0×18 cm) equilibrated in Buffer A containing 1.2M ammonium sulfate. The sample, in 125 ml (1.85 mg/ml), was loaded at a flow rate of 1 ml/min at 4° C. […] The column was then washed isocratically in Buffer A for 120 min. Active fractions were pooled, concentrated to 10 ml using an Amicon stirred cell with a YM-10 membrane, and applied at 1 ml/min to a MonoS cation exchange column (1.0×10 cm) equilibrated in Buffer A. After washing isocratically for 30 min, protease was eluted using a linear gradient of 0-0.45M NaCl in Buffer A over 40 min followed by an isocratic wash with Buffer A containing 0.45M NaCl over 30 min. Chromatography was performed at 25° C.
Pooled active fractions were concentrated to 200 ul using an Amicon stirred cell and a YM-10 membrane, and the protease was then applied to a Superose 6 size exclusion column equilibrated in Buffer A containing 0.1M NaCl. The column was washed isocratically in this buffer at a flow rate of 0.5 ml/min.

[1] = purified HIV-1 protease, MES-ALB buffer pH 5.5, 1 h preincubation, 16 h with substrate, room temperature, IC50 values for Examples 2-70 are standardized relative to Ex 1

Row | IC50 [nM] | other results | SMILES
1 | – | IC50 [1]: 7.55 nM | CC(C)[C@H](NC(=O)c1cnc2ccccc2n1)C(=O)N[C@@H](Cc1ccccc1)[C@H](O)Cc1ccccc1C(=O)NC(C)(C)C [Example 34, [1S-(1R*, 4R*, 5S*)]-N-(1-(1-methylethyl)-2-oxo-3-aza-4-phenylmethyl-5-hydroxy-6-(2-(1-t-butylamino-1-oxomethyl)phenyl)hexyl)-2-quinoxalinyl acetamide]
2 | 7.73 | – | Cc1ccc(C[C@@H](O)[C@H](Cc2ccccc2)NC(=O)[C@H](Cc2c[nH]cn2)NC(=O)c2ccc3ccccc3n2)c(C(=O)NC(C)(C)C)c1 [Example 67, [1S-(1R*, 4R*, 5S*)]-N-(1-(4-imidazolylmethyl)-2-oxo-3-aza-4-phenylmethyl-5-hydroxy-6-(2-(1-t-butylamino-1-oxomethyl)-4-methylphenyl)-4-hexyl)-2-quinolinyl carboxamide]
3 | 0.23 | – | CC(C)c1ccc(C(=O)NC(C)(C)C)c(C[C@@H](O)[C@H](Cc2ccccc2)NC(=O)[C@H](CC(N)=O)NC(=O)c2ccc3ccccc3n2)c1 [Example 68, [1S-(1R*, 4R*, 5S,)]-N-(1-(2-amino-2-oxoethyl)-2-oxo-3-aza-4-phenylmethyl-5-hydroxy-6-(2-(1-t-butylamino-1-oxomethyl)-5-isopropylphenyl)hexyl)-2-quinolinyl carboxamide]
4 | 14.9 | – | CC(C)(C)NC(=O)c1ccccc1C[C@@H](O)[C@H](CC1CCCCC1)NC(=O)[C@H](CC(N)=O)NC(=O)c1ccc2ccccc2n1 [Example 51, [1S-(1R*, 4R*. 5S*)]-N-(1-(2-amino-2-oxoethyl)-2-oxo-3-aza-4-cyclohexylmethyl-5-hydroxy-6-(2-(1-t-butylamino-1-oxomethyl)phenyl)hexyl)-2-quinolinyl carboxamide]
5 | 12 | – | CC(C)(C)NC(=O)c1ccccc1C[C@@H](O)[C@H](Cc1ccc(OCc2ccccc2)cc1)NC(=O)[C@H](CC(N)=O)NC(=O)c1ccc2ccccc2n1 [Example 9, [1S-(1R*, 4R*, 5S*)]-N-(1-(2-amino-2-oxoethyl)-2-oxo-3-aza-4-(4-phenylmethyloxy)phenylmethyl-5-hydroxy-6-(2-(1-t-butylamino-1-oxomethyl)phenyl)hexyl)-2-quinolinyl carboxamide]
6 | 5.9 | – | CC(C)(C)NC(=O)c1ccccc1C[C@@H](O)[C@H](Cc1ccccc1)NC(=O)[C@H](CC(N)=O)NC(=O)c1ccc2cccc(Cl)c2n1 [Example 62, [1S-(1R*, 4R*, 5S*)]-N-(1-(2-amino-2-oxoethyl)-2-oxo-3-aza-4-phenylmethyl-5-hydroxy-6-(2-(1-t-butylamino-1-oxomethyl)phenyl)hexyl)-8-chloroquinolin-2-yl carboxamide]
7 | 13 | – | CC(C)(C)NC(=O)c1sccc1C[C@@H](O)[C@H](Cc1ccccc1)NC(=O)[C@H](CC(N)=O)NC(=O)c1ccc2ccccc2n1 [Example 41, [1S-(1R*, 4R*. 5S*) ]-N-(1-(2-amino-2-oxoethyl)-2-oxo-3-aza-4-phenylmethyl-5-hydroxy-6-(2-(1-t-butylamino-1-oxomethyl)thien-3-yl)hexyl)-2-quinolinyl carboxamide]
8 | – | Fluorescence Assay IC50 [1]: 1.5 ng/mL | CC(C)(C)NC(=O)c1ccccc1CC(O)C(Cc1ccccc1)NC(=O)C(CC(N)=O)NC(=O)c1cc(C(C)(C)C)c2ccccc2n1 (stereo not drawn) [Example 66, [1S-(1R*, 4R*, 5S*)]-N-(1-(3-amino-2-oxoethyl)-2-oxo-3-aza-4-phenylmethyl-5-hydroxy-6-(2-(1-t-butylamino-1-oxomethyl)phenyl)hexyl)-4-(2,2-dimethylethyl)quinolin-2-yl carboxamide]
9 | 890 | – | CC(C)(C)NC(=O)c1ccccc1C[C@@H](O)[C@H](Cc1ccccc1)NC(=O)[C@H](CO)NC(=O)OCc1ccccc1 [Example 12, [2R-(2R*, 3S*, 6S*)]-N-t-butyl-2-(2-hydroxy-3-phenylmethyl-4-aza-5-oxo-6-hydroxymethyl-6-(N-phenylmethoxycarbonyl-amino)hexyl)benzamide]
10 | – | IC50 [1]: 0.228 nM | CC(C)(C)NC(=O)c1ccccc1C[C@@H](O)[C@H](Cc1ccccc1)NC(=O)[C@H](CC(=O)NNc1cccnc1)NC(=O)c1ccc2ccccc2n1 [Example 50, [1S-(1R*, 4R*, 5S*)]-N-(1-(2-(N-(N-3-pyridyl)amino)amino)-2-oxoethyl)-2-oxo-3-aza-4-phenylmethyl-5-hydroxy-6-(2-(1-t-butylamino-1-oxomethyl)phenyl)hexyl)-2-quinolinyl carboxamide]
11 | 1060 | – | CC(C)(C)NC(=O)c1ccccc1C[C@@H](O)[C@H](Cc1ccccc1)NC(=O)[C@H](CC(N)=O)NC(=O)C1Cc2ccccc2CN1 (single isomer, unassigned) [Example 36, [1S-(1R*, 4R*, 5S*)]-N-(1-(2-amino-2-oxoethyl)-2-oxo-3-aza-4-phenylmethyl-5-hydroxy-6-(2-(1-t-butylamino-1-oxomethyl)phenyl)hexyl)-3-(1,2,3,4-tetrahydroisoquinolinyl) carboxamide]
12 | 8.18 | – | Cc1cc2ccccc2nc1C(=O)N[C@@H](CC(N)=O)C(=O)N[C@@H](Cc1ccccc1)[C@H](O)Cc1ccccc1C(=O)NC(C)(C)C [Example 27, [1S-(1R*, 4R*. 5S*) ]-N-(1-(2-amino-2-oxoethyl)-2-oxo-3-aza-4-phenylmethyl-5-hydroxy-6-(2-(1-t-butylamino-1-oxomethyl)phenyl)hexyl)-3-methylquinolin-2-yl carboxamide]
13 | 4.62 | – | CC(C)(C)NC(=O)c1ccccc1C[C@@H](O)[C@H](Cc1ccccc1)NC(=O)[C@H](CC(N)=O)NC(=O)c1ccc2cccc(F)c2n1 [Example 52, [1S-(1R*, 4R*, 5S*)]-N-(1-(2-amino-2-oxoethyl)-2-oxo-3-aza-4-phenylmethyl-5-hydroxy-6-(2-(1-t-butylamino-1-oxomethyl)phenyl)hexyl)-8-fluoroquinolin-2-yl carboxamide]
14 | 50.8 | – | CC(C)(C)C(=O)Nc1ccccc1C[C@@H](O)[C@H](Cc1ccccc1)NC(=O)[C@H](CC(N)=O)NC(=O)c1ccc2ccccc2n1 [Example 18, [1S-(1R*, 4R*, 5S*)]-N-(1-(2-amino-2-oxoethyl)-2-oxo-3-aza-4-phenylmethyl-5-hydroxy-6-(2-(2,2-dimethyl-1-oxopropylamino)phenyl)hexyl)-2-quinolinyl carboxamide]
15 | 0.641 | – | Cc1ccc2ccc(C(=O)N[C@@H](CC(N)=O)C(=O)N[C@@H](Cc3ccccc3)[C@H](O)Cc3ccccc3C(=O)NC(C)(C)C)nc2c1 [Example 23, [1S-(1R*, 4R*, 5S*)]-N-(1-(2-amino-2-oxoethyl)-2-oxo-3-aza-4-phenylmethyl-5-hydroxy-6-(2-(1-t-butylamino-1-oxomethyl)phenyl)hexyl)-7-methylquinolin-2-yl carboxamide]
16 | 12.7 | – | CC(C)(C)NC(=O)c1cc2ccccc2cc1C[C@@H](O)[C@H](Cc1ccccc1)NC(=O)[C@H](CC(N)=O)NC(=O)c1ccc2ccccc2n1 (relative stereo) [Example 5, 1S-(1R*. 4R*, 5S*)]-N-(1-(2-amino-2-oxoethyl)-2-oxo-3-aza-4-phenylmethyl-5-hydroxy-6-(3-(1-t-butylamino-1-oxomethyl)-2-naphthyl)hexyl)-2-quinolinyl carboxamide]
17 | – | Fluorescence Assay IC50 [1]: 1.3 ng/mL | CC(C)(C)NC(=O)c1ccccc1CC(O)C(Cc1ccccc1)NC(=O)C(CC(N)=O)NC(=O)c1cccc2cccnc12 (stereo not drawn) [Example 61, [1S-(1R*, 4R*, 5S*)]-N-(1-(2-amino-2-oxoethyl)-2-oxo-3-aza-4-phenylmethyl-5-hydroxy-6-(2-(1-t-butylamino-1-oxomethyl)phenyl)hexyl)-8-quinolinyl carboxamide]
